Test results: patent US6794356B2, “Fabric softening composition comprising a malodor controlling agent” (The Procter & Gamble Company, priority 2000, dated 2004)

Details: typical approximate values; salt added to the solution

SMILES	cloud point of 1% solution of Neodol 91-8
[Cl-].[Na+] [sodium chloride]	63-66.9 °C
O=S(=O)([O-])[O-].[Ca+2] [calcium sulfate]	no change
